{"source": "patent US20250084056A1", "about": "“SUBSTITUTED OXOISOINDOLINYL PIPERIDINE-2,6-DIONE COMPOUNDS” (BRISTOL-MYERS SQUIBB COMPANY, priority 2023, published 2025)", "test_system": "Phospho-Rb (Ser807/811)", "assay": "Phospho-Retinoblastoma (pRB) Cellular Assay", "assay_type": "cell-based", "conditions": "Homo sapiens, OVCAR-3, NIH OVCAR3 cells, 24 hours", "procedure,_shortened": "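OVCAR3 cells seeded overnight, then dosed with serial dilutions for 24 h at 37° C. Lysed with kit mix plus phosphatase inhibitor, ≥4 h at room temperature, read on EnVision; 100% response set by reference compound at 10 μM, giving IC50 and Ymax.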", "note": "pIC50: −log10 of the molar value.", "data": [{"smiles": "COc1c(COC(=O)Nc2ccc(Oc3ccc(F)c(F)c3)cc2)ccc2c1C(=O)N([C@H]1CCC(=O)NC1=O)C2", "note": "(single isomer, unassigned) [Example 35, {2-[(3 S)-2,6-dioxopiperidin-3-yl]-4-methoxy-3-oxo-2,3-dihydro-1H-isoindol-5-yl}methyl N-[4-(3,4-difluorophenoxy)phenyl]carbamate]", "values": [{"measurement": "pIC50", "setting": "concentration giving 50% response", "value": 7.07}, {"measurement": "Emax", "setting": "maximum response, reference compound at 10 μM = 100%, read-out: pRB Ymax", "value": 114, "unit": "%"}]}]}
